{"source": "patent US9920010B2", "about": "“CXCR7 receptor modulators” (IDORSIA PHARMACEUTICALS LTD, priority 2013, dated 2018)"}
{"target": "T1, CXCR7 (Homo sapiens, UniProt P25106)", "T1 construct": "host or cells: CHO-K1 (PathHunter CHO-K1 CXCR7 b-arrestin cell line, stably transfected)", "T1 sequence (P25106 whole entry, the tested form may be a part)": "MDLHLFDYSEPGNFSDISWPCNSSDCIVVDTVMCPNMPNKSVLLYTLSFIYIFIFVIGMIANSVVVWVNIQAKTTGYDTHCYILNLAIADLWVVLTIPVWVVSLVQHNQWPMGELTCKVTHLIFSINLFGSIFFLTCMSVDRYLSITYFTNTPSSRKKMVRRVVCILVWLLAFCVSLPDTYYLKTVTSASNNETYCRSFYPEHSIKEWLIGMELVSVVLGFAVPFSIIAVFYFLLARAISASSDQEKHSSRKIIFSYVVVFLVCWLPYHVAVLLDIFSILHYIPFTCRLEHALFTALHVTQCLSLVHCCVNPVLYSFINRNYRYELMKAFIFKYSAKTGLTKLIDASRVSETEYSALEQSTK", "T1 sequence (P32121 whole entry partner, the tested form may be a part)": "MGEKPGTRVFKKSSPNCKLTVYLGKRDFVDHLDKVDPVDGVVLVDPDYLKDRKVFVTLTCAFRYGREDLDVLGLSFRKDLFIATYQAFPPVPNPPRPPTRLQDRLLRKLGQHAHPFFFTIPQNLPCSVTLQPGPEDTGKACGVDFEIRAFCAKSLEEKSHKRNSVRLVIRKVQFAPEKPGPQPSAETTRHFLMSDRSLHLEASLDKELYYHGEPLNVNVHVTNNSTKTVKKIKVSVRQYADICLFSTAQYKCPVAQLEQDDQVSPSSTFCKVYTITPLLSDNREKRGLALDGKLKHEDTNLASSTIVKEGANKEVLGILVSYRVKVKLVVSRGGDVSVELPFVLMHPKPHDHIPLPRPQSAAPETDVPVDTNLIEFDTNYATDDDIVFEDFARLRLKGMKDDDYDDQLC", "experiment": "PathHunter CHO-K1 CXCR7 b-arrestin recruitment assay (CXCR7 agonistic activity)", "type": "cell-based", "settings": "PathHunter CHO-K1 CXCR7 b-arrestin cell line", "how_it_was_run": "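Stable CHO-K1 line with C-terminally ProLink-tagged CXCR7 and β-arrestin 2–EA fusion; β-arrestin recruitment restores β-gal activity, read by chemiluminescence after 1 h RT detection. Cells seeded 24 h, starved in OPTIMEM 3–4 h, exposed to compounds 90 min at 37 °C in HBSS/HEPES/BSA. Geometric-mean EC50 from repeated measurements.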", "units": {"EC50": "nM"}}
{"smiles": "COCCN1CCc2c(CCC(=O)N(CCN(C)CCF)Cc3ccccc3C(F)(F)F)cccc2C1", "note": "[Example 342, N-{2-[(2-Fluoro-ethyl)-methyl-amino]-ethyl}-3-[2-(2-methoxy-ethyl)-1,2,3,4-tetrahydro-isoquinolin-5-yl]-N-(2-trifluoromethyl-benzyl)-propionamide]", "EC50": 110}
{"smiles": "COCCN1CCc2c(CCC(=O)N(Cc3ccccc3C(F)(F)F)CC3(C)COC3)cccc2C1", "note": "[Example 343, 3-[2-(2-Methoxy-ethyl)-1,2,3,4-tetrahydro-isoquinolin-5-yl]-N-(3-methyl-oxetan-3-ylmethyl)-N-(2-trifluoromethyl-benzyl)-propionamide]", "EC50": 415}
{"smiles": "COCCN1CCc2c(CCC(=O)N(CCC(C)(C)O)Cc3ccccc3C(F)(F)F)cccc2C1", "note": "[Example 344, N-(3-Hydroxy-3-methyl-butyl)-3-[2-(2-methoxy-ethyl)-1,2,3,4-tetrahydro-isoquinolin-5-yl]-N-(2-trifluoromethyl-benzyl)-propionamide]", "EC50": 438}
{"smiles": "COCCN1CCc2c(CCC(=O)N(CCN3CCC(F)(F)CC3)Cc3ncccc3Cl)cccc2C1", "note": "[Example 345, N-(3-Chloro-pyridin-2-ylmethyl)-N-[2-(4,4-difluoro-piperidin-1-yl)-ethyl]-3-[2-(2-methoxy-ethyl)-1,2,3,4-tetrahydro-isoquinolin-5-yl]-propionamide]", "EC50": 400}
{"smiles": "COCCN1CCc2c(CCC(=O)N(CCN(C)C)Cc3ncccc3Cl)cccc2C1", "note": "[Example 346, N-(3-Chloro-pyridin-2-ylmethyl)-N-(2-dimethylamino-ethyl)-3-[2-(2-methoxy-ethyl)-1,2,3,4-tetrahydro-isoquinolin-5-yl]-propionamide]", "EC50": 73}
{"smiles": "COCCN1CCc2c(CCC(=O)N(Cc3ncccc3Cl)CC(C)(C)O)cccc2C1", "note": "[Example 347, N-(3-Chloro-pyridin-2-ylmethyl)-N-(2-hydroxy-2-methyl-propyl)-3-[2-(2-methoxy-ethyl)-1,2,3,4-tetrahydro-isoquinolin-5-yl]-propionamide]", "EC50": 445}
{"smiles": "C=CCN(C)CCN(Cc1ccccc1C(F)(F)F)C(=O)CCc1cccc2c1CCN(CC=C)C2", "note": "[Example 348, N-[2-(Allyl-methyl-amino)-ethyl]-3-(2-allyl-1,2,3,4-tetrahydro-isoquinolin-5-yl)-N-(2-trifluoromethyl-benzyl)-propionamide]", "EC50": 13}
{"smiles": "C=CCN1CCc2c(CCC(=O)N(CCN(C)C)Cc3ccccc3C(F)(F)F)cccc2C1", "note": "[Example 349, 3-(2-Allyl-1,2,3,4-tetrahydro-isoquinolin-5-yl)-N-(2-dimethylamino-ethyl)-N-(2-trifluoromethyl-benzyl)-propionamide]", "EC50": 12}
{"smiles": "CN(C)CCN(Cc1ccccc1C(F)(F)F)C(=O)CNc1cccc2c1CCN(C1CCC1)C2", "note": "[Example 352, 2-(2-Cyclobutyl-1,2,3,4-tetrahydro-isoquinolin-5-ylamino)-N-(2-dimethylamino-ethyl)-N-(2-trifluoromethyl-benzyl)-acetamide]", "EC50": 4}
{"smiles": "CN(C)CCN(Cc1ccccc1C(F)(F)F)C(=O)CNc1cccc2c1CCN(C1COC1)C2", "note": "[Example 353, N-(2-Dimethylamino-ethyl)-2-(2-oxetan-3-yl-1,2,3,4-tetrahydro-isoquinolin-5-ylamino)-N-(2-trifluoromethyl-benzyl)-acetamide]", "EC50": 85}
{"smiles": "CC(C1CC1)N1CCc2c(cccc2NCC(=O)N(CCN(C)C)Cc2ccccc2C(F)(F)F)C1", "note": "(centres unmarked) [Example 357, 2-[2-(1-Cyclopropyl-ethyl)-1,2,3,4-tetrahydro-isoquinolin-5-ylamino]-N-(2-dimethylamino-ethyl)-N-(2-trifluoromethyl-benzyl)-acetamide]", "EC50": 4}
{"smiles": "CN(C)CCN(Cc1ccccc1C(F)(F)F)C(=O)CNc1cccc2c1CCN(CC1(C)COC1)C2", "note": "[Example 358, N-(2-Dimethylamino-ethyl)-2-[2-(3-methyl-oxetan-3-ylmethyl)-1,2,3,4-tetrahydro-isoquinolin-5-ylamino]-N-(2-trifluoromethyl-benzyl)-acetamide]", "EC50": 26}
{"smiles": "COCCN1CCc2c(cccc2NCC(=O)N(CCN(C)C)Cc2ccccc2C(F)(F)F)C1", "note": "[Example 359, N-(2-(dimethylamino)ethyl)-2-((2-(2-methoxyethyl)-1,2,3,4-tetrahydroisoquinolin-5-yl)amino)-N-(2-(trifluoromethyl)benzyl)acetamide]", "EC50": 9}
{"smiles": "COC(=O)CN1CCc2c(cccc2NCC(=O)N(CCN(C)C)Cc2ccccc2C(F)(F)F)C1", "note": "[Example 360, [5-({[(2-Dimethylamino-ethyl)-(2-trifluoromethyl-benzyl)-carbamoyl]-methyl}-amino)-3,4-dihydro-1H-isoquinolin-2-yl]-acetic acid methyl ester]", "EC50": 30}
{"smiles": "CN(C)CCN(Cc1ccccc1C(F)(F)F)C(=O)CNc1cccc2c1CCN(CC1CCC1)C2", "note": "[Example 361, 2-(2-Cyclobutylmethyl-1,2,3,4-tetrahydro-isoquinolin-5-ylamino)-N-(2-dimethylamino-ethyl)-N-(2-trifluoromethyl-benzyl)-acetamide]", "EC50": 6}
{"smiles": "CN(C)CCN(Cc1ccccc1C(F)(F)F)C(=O)CNc1cccc2c1CCN(C(=O)C(C)(F)F)C2", "note": "[Example 362, 2-[2-(2,2-Difluoro-propionyl)-1,2,3,4-tetrahydro-isoquinolin-5-ylamino]-N-(2-dimethylamino-ethyl)-N-(2-trifluoromethyl-benzyl)-acetamide]", "EC50": 21}
{"smiles": "CN(C)CCN(Cc1ccccc1C(F)(F)F)C(=O)CNc1cccc2c1CCN(CC#N)C2", "note": "[Example 364, 2-(2-Cyanomethyl-1,2,3,4-tetrahydro-isoquinolin-5-ylamino)-N-(2-dimethylamino-ethyl)-N-(2-trifluoromethyl-benzyl)-acetamide]", "EC50": 44}
{"smiles": "CN(C)CCN(Cc1ncccc1C(F)(F)F)C(=O)CNc1cccc2c1CCN(C1CCC1)C2", "note": "[Example 366, 2-(2-Cyclobutyl-1,2,3,4-tetrahydro-isoquinolin-5-ylamino)-N-(2-dimethylamino-ethyl)-N-(3-trifluoromethyl-pyridin-2-ylmethyl)-acetamide]", "EC50": 2}
{"smiles": "CN(C)CCN(Cc1ncccc1C(F)(F)F)C(=O)CNc1cccc2c1CCN(C1COC1)C2", "note": "[Example 367, N-(2-Dimethylamino-ethyl)-2-(2-oxetan-3-yl-1,2,3,4-tetrahydro-isoquinolin-5-ylamino)-N-(3-trifluoromethyl-pyridin-2-ylmethyl)-acetamide]", "EC50": 115}
{"smiles": "CN(C)CCN(Cc1ncccc1C(F)(F)F)C(=O)CNc1cccc2c1CCN(CC1CCC1)C2", "note": "[Example 368, 2-(2-Cyclobutylmethyl-1,2,3,4-tetrahydro-isoquinolin-5-ylamino)-N-(2-dimethylamino-ethyl)-N-(3-trifluoromethyl-pyridin-2-ylmethyl)-acetamide]", "EC50": 3}
{"smiles": "CCOC(=O)CN1CCc2c(cccc2NCC(=O)N(CCN(C)C)Cc2ncccc2C(F)(F)F)C1", "note": "[Example 369, [5-({[(2-Dimethylamino-ethyl)-(3-trifluoromethyl-pyridin-2-ylmethyl)-carbamoyl]-methyl}-amino)-3,4-dihydro-1H-isoquinolin-2-yl]-acetic acid ethyl ester]", "EC50": 92}
{"smiles": "COC(=O)CN1CCc2c(cccc2NCC(=O)N(CCN(C)C)Cc2ncccc2C(F)(F)F)C1", "note": "[Example 370, [5-({[(2-Dimethylamino-ethyl)-(3-trifluoromethyl-pyridin-2-ylmethyl)-carbamoyl]-methyl}-amino)-3,4-dihydro-1H-isoquinolin-2-yl]-acetic acid methyl ester]", "EC50": 40}
{"smiles": "COCCN1CCc2c(cccc2NCC(=O)N(CCN(C)C)Cc2ncccc2C(F)(F)F)C1", "note": "[Example 371, N-(2-Dimethylamino-ethyl)-2-[2-(2-methoxy-ethyl)-1,2,3,4-tetrahydro-isoquinolin-5-ylamino]-N-(3-trifluoromethyl-pyridin-2-ylmethyl)-acetamide]", "EC50": 16}
{"smiles": "CN(C)CCN(Cc1ccccc1C(F)(F)F)C(=O)CNc1cccc2c1CCN(c1ccccc1)C2", "note": "[Example 373, N-(2-Dimethylamino-ethyl)-2-(2-phenyl-1,2,3,4-tetrahydro-isoquinolin-5-ylamino)-N-(2-trifluoromethyl-benzyl)-acetamide]", "EC50": 67}
{"smiles": "CN(C)CCN(Cc1ccccc1C(F)(F)F)C(=O)CNc1cccc2c1CCN(c1ccccn1)C2", "note": "[Example 374, N-(2-Dimethylamino-ethyl)-2-(2-pyridin-2-yl-1,2,3,4-tetrahydro-isoquinolin-5-ylamino)-N-(2-trifluoromethyl-benzyl)-acetamide]", "EC50": 5}
{"smiles": "CN(C)CCN(Cc1ccccc1C(F)(F)F)C(=O)CNc1cccc2c1CCN(c1ncccn1)C2", "note": "[Example 375, N-(2-Dimethylamino-ethyl)-2-(2-pyrimidin-2-yl-1,2,3,4-tetrahydro-isoquinolin-5-ylamino)-N-(2-trifluoromethyl-benzyl)-acetamide]", "EC50": 6}
{"smiles": "CN(C)CCN(Cc1ccccc1C(F)(F)F)C(=O)CNc1cccc2c1CCN(c1nc(C(F)(F)F)cs1)C2", "note": "[Example 376, N-(2-Dimethylamino-ethyl)-N-(2-trifluoromethyl-benzyl)-2-[2-(4-trifluoromethyl-thiazol-2-yl)-1,2,3,4-tetrahydro-isoquinolin-5-ylamino]-acetamide]", "EC50": 27}
{"smiles": "CNCCN(Cc1ccccc1C(F)(F)F)C(=O)CNc1cccc2c1CCN(C(=O)C1CC1)C2", "note": "[Example 385, 2-(2-Cyclopropanecarbonyl-1,2,3,4-tetrahydro-isoquinolin-5-ylamino)-N-(2-methylamino-ethyl)-N-(2-trifluoromethyl-benzyl)-acetamide]", "EC50": 7}
{"smiles": "O=C(CNc1cccc2c1CCN(CC1CC1)C2)N(CCNCC(F)(F)F)Cc1ccccc1C(F)(F)F", "note": "[Example 434, 2-(2-Cyclopropylmethyl-1,2,3,4-tetrahydro-isoquinolin-5-ylamino)-N-[2-(2,2,2-trifluoro-ethylamino)-ethyl]-N-(2-trifluoromethyl-benzyl)-acetamide]", "EC50": 20}
